In brackets after ≈: the same amount, converted by molar mass. Read-outs that look alike come from different tables or passages of the source.
What was measured:
[1] = test system: herpes simplex virus type 2 (MS strain); assay: In vitro antiviral activity, herpes simplex virus type 2 (virus rating); format: cell-based; details: Vero cells; VR >1.0 marked, 0.5 to 0.9 moderate, <0.5 weak or no activity
[2] = test system: vaccinia virus (Elstree strain); format: cell-based; details: HeLa cells; VR >1.0 marked, 0.5 to 0.9 moderate, <0.5 weak or no activity
[3] = test system: parainfluenza 3 (C243 strain); assay: In vitro antiviral activity, parainfluenza 3 (virus rating); format: cell-based; details: Vero cells; VR >1.0 marked, 0.5 to 0.9 moderate, <0.5 weak or no activity
L1210 cells = assay: In vitro cytotoxicity, L1210; format: cell-based, murine; details: Mus musculus, L1210, 72 h; 3 days, 37° C., MTT; read-out: Antitumor (ID50) L1210
Procedure: (§1) ^b (ID50) inhibitory dose is the μM concentration of the
(§2) In vitro cytotoxicity analysis was performed by using the following cell lines: L1210 (a murine leukemia), WI-L2 (a human B-lymphoblast), and LoVo/L (a human colon carcinoma). Cells were grown in RPMI 1640 medium supplemented with 10% fetal bovine serum, 20 mM HEPES, pH 7.4, and 2 mM glutamine. The cytotoxicity determinations were carried out in 96-well microtiter dishes containing a starting number of 5-10×10^3 cells per well and 0.1-100 μM concentrations of the compounds in triplicate wells. L1210 and WI-L2 were incubated with the compounds at 37° C. for 3 days, while Lovo/L was incubated for 5 days. After this time period, 25 μL of 4 mg/mL 3-(4,5-dimethylthiazol-2-yl)-2,5-diphenyltetrazolium bromide was added to each well and incubation was continued for 2 to 5 h. The formazan product was dissolved in isopropanol containing 0.04M HCl and the absorbance was determined with a microtiter plate reader. The absorbance was proportional to the number of cells.

WI-L2 cells = assay: In vitro cytotoxicity, WI-L2; format: cell-based; details: Homo sapiens, WIL2, 72 h; 3 days, 37° C., MTT; read-out: Antitumor (ID50) WI-L2
Procedure: as §1, §2

LoVo/L cells = assay: In vitro cytotoxicity, LoVo/L; format: cell-based; details: Homo sapiens, 120 h, 5 days, 37° C., MTT, read-out: Antitumor (ID50) LoVo/L
Procedure: as §1, §2

L1210 = assay: In vivo antitumor activity against L1210 in BDF1 mice
Procedure: Compounds 8, 11, 14 and 17 were comparatively evaluated in vivo for efficacy against L1210 in BDF1 mice.
Mice were inoculated i.p. with 1×10^6 L1210 cells 24 hr before qd, day 1, i.p. drug delivery. Drugs were solubilized in water and delivered at the rate of 0.01 ml/g mouse weight. Then control mice/drug were injected i.p. with equivalent volumes of a 0.9% solution of NaCl, the means and standard deviations reflecting the postinoculation life spans of these mice ranged from 6.30±0.48 to 6.60±0.97 days.

[4] = test system: de novo purine biosynthesis in WI-L2 cells; assay: Inhibition of de novo purine biosynthesis ([14C]formate incorporation); format: cell-based, human; details: for minimal effective concentration: active at concentrations as low as, read-out: lowest active concentration, de novo purine biosynthesis; for activity at 0.25 µM / activity at 2.5 µM: pre-incubation 8 h; for inhibitory activity on de novo purine biosynthesis (ranking): WI-L2 cells
Procedure: (§3) Compounds of the invention were also tested for certain biochemical properties. Compounds of the invention were studied for their effect on de novo purine biosynthesis by observing inhibition of incorporation of [^14 C]formate into the acid-soluble fraction of WI-L2 cells (see Table 3). […] However, 8 and 14 (100 μM) were not cytotoxic to WI-L2 cells deficient in adenosine kinase activity.
(§4) A normal lymphoblast phenotype B cell line, WI-L2 was used. The enzyme-deficient cell lines used in vitro are: HPRT-, a hypoxanthine-guanine phosphorbosyl transferase (EC 2.4.2.8)deficient line and AK-, an adenosine kinase (EC 2.7.1.20)deficient line. Cells were cultured in RPMI 1640 medium containing 5% dialyzed fetal bovine serum, 20 mM Na HEPES, pH 7.5 and 2 mM glutamine and maintained in log phase growth between 0.5 and 12×10^5 cells/mL. The mutant cell lines were periodically reselected by treatment with 6-thioguanine (HPRT-) or tubercidin (AK-).
. Inhibition of de novo purine biosynthesis: WI-L2 or adenosine kinase-deficient cells were preincubated at 37° C. with drug for various time periods prior to labeling with [^14 C]formate. Enzyme Assays: Adenosine kinase inhibition studies were accomplished by the filter binding assay method. Inhibition studies were done at 37° C. with an assay mixture containing 4 mM ATP, 1.5 mM MgCl2, 5 or 10 μM [8-^14 C] adenosine (50 mCi/mmol) and 100 mM Tris-maleate, pH 5.5. To prevent the enzymatic breakdown of adenosine, erythro-9-(2-hydroxy-3-nonyl)adenine (EHNA) was added to the cell-free WI-L2 lysate to give 5 μM final assay concentration. The assay was started by the addition of protein. The amount of enzyme, time of assay and sampling volume were adjusted to give acceptable conversion of [8-^14 C] adenosine to [8-^14 C]AMP. Each DE-81 filter was spotted with a constant sampling volume and immersed in H 2 O (4 L) to terminate the reaction. Filters were washed three times with H2 O (4 L) and once with EtOH (100 mL). Dry filters were placed in scintillation vials and radioactivity was counted with 10 mL toluene-based scintillation cocktail.
De novo purine biosynthesis was measured by the incorporation of ^14 C-formate into cellular purine nucleotides or excreted purines after pre-incubation with compound.

[5] = test system: WI-L2 cells deficient in adenosine kinase; assay: Cytotoxicity to WI-L2 cells deficient in adenosine kinase activity; format: cell-based, human; details: 100 μM
Procedure: as §3, §4

in vitro = format: biochemical; details: adenosine deaminase, pH 7.5
Procedure: (§5) Samples were analyzed directly on reverse-phase HPLC. Enzymatic conversions were distinguished from hydrolysis by treating a parallel sample with EHNA to inhibit the deaminase activity.

adenosine deaminase = assay: in vitro; format: biochemical; details: compared with ARPP
Procedure: as §5

[6] = test system: pyrimidine (CTP + UTP) and purine (ATP + GTP) nucleoside triphosphates; assay: 14C-bicarbonate incorporation into acid soluble pyrimidine and purine nucleoside triphosphates; format: cell-based
Description: Comparative effect of compounds on ^14 C-bicarbonate
incorporation into acid soluble pyrimidine (PyrTP,
CTP + UTP) and purine (PurTP, ATP + GTP) nucleoside

[7] = Intracellular phosphorylation (SAX-HPLC); format: cell-based
[8] = delivered at 0.01 ml/g mouse weight
physchem = details: water
[9] = Lethal toxicity in treated mice
[10] = Homo sapiens, WIL2, cell, read-out: de novo purine biosynthesis, % of control, cell, 0.25 μM
[11] = Homo sapiens, WIL2, cell, read-out: de novo purine biosynthesis, % of control, cell, 2.5 μM
[12] = Homo sapiens, WIL2, media (excreted purines), read-out: de novo purine biosynthesis, % of control, media, 0.25 μM
[13] = Homo sapiens, WIL2, media (excreted purines), read-out: de novo purine biosynthesis, % of control, media, 2.5 μM

Structure (SMILES): Nc1ncnc2c(N[C@@H]3O[C@H](CO)[C@@H](O)[C@H]3O)ncnc12 [Compound 8, 4-Amino-8-(β-D-ribofuranosylamino)pyrimido[5,4-d]pyrimidine, reference compound]
- Antiviral (VR) HSV2 [1]: 0.8 VR
- Antiviral (VR) VV [2]: 1.3 VR
- Antiviral (VR) PI3 [3]: 0.7 VR
- IC50 (L1210 cells): 800 nM
- IC50 (WI-L2 cells): 200 nM
- IC50 (LoVo/L cells): 7000 nM
- Postinoculation Lifespan (% T/C), 173 mg/kg/inj. (L1210; 173 mg/kg/inj. i.p., qd, day 1): 162 % T/C
- T/C (L1210; qd, day 1, at maximum soluble dosage): 162
- effect on de novo purine biosynthesis [4]: inhibit an early step in de novo purine biosynthesis
- minimal effective concentration ([4]; Homo sapiens, WIL2): 0.25 µM
- activity at 0.25 µM [4, 10]: 79.5%
- activity at 2.5 µM [4, 11]: 29.9%
- activity at 0.25 µM [4, 12]: 71.9%
- activity at 2.5 µM [4, 13]: 54.6%
- inhibitory activity on de novo purine biosynthesis (ranking) [4]: greatest inhibitory activity
- cytotoxicity to adenosine kinase-deficient WI-L2 cells [5]: not cytotoxic
- metabolised at 5 min, 1000 µM (in vitro; 5 min, β-anomer, read-out: conversion of β-anomer by adenosine deaminase in 5 min): 60%
- substrate activity for adenosine deaminase (adenosine deaminase): preferential disappearance of the β-anomer
- CAA (carbamyl aspartate), 1.5 μM ([6]; 1.5 μM): 1608 cpm/10^6 cells
- PurTP, 1.5 μM ([6]; 1.5 μM, zero = undetectable): 0 cpm/10^6 cells
- PyrTP, 1.5 μM ([6]; 1.5 μM, zero = undetectable): 0 cpm/10^6 cells
- activity at 1.5 µM ([6]; 1.5 μM, zero = undetectable, read-out: PurTP, % control, 1.5 μM): 0%
- activity at 1.5 µM ([6]; read-out: PydTP, % control, 1.5 μM): 0%
- intracellular phosphate formation [7]: formation of intracellular ARPP 5'-monophosphate but no higher phosphate analogues
- Maximum watersoluble dosage [8]: 173 mg/kg/inj.
- solubility (physchem): 17.3 mg/mL (≈ 58.8 mM)
- lethal toxicity at maximum soluble dosage ([9]; i.p.): Neither drug was lethally toxic at its maximum soluble dosage

Structure (SMILES): COc1ncnc2c(N[C@@H]3O[C@H](CO)[C@@H](O)[C@H]3O)ncnc12 [Compound 14, 4-Methoxy-8-(β-D-ribofuranosylamino)pyrimido[5,4-d]pyrimidine]
- Antiviral (VR) HSV2 [1]: 0.2 VR
- Antiviral (VR) VV [2]: 1.0 VR
- Antiviral (VR) PI3 [3]: 0.7 VR
- IC50 (L1210 cells): 40 nM
- IC50 (WI-L2 cells): 60 nM
- IC50 (LoVo/L cells): 280 nM
- T/C, 62 mg/kg (L1210; 62 mg/kg, qd day 1): 182
- Postinoculation Lifespan (% T/C), 62 mg/kg/inj. (L1210; 62 mg/kg/inj. i.p., qd, day 1): 182 % T/C
- effect on de novo purine biosynthesis [4]: inhibit an early step in de novo purine biosynthesis
- minimal effective concentration ([4]; Homo sapiens, WIL2): 0.25 µM
- activity at 0.25 µM [4, 10]: 41.9%
- activity at 2.5 µM [4, 11]: 2.7%
- activity at 25 µM ([4]; Homo sapiens, WIL2, cell, 25 μM, pre-incubation 4 h, read-out: de novo purine biosynthesis, % of control, cell, 25 μM): 4.3%
- activity at 0.25 µM [4, 12]: 63%
- activity at 2.5 µM [4, 13]: 41.8%
- inhibitory activity on de novo purine biosynthesis (ranking) [4]: greatest inhibitory activity
- cytotoxicity to adenosine kinase-deficient WI-L2 cells [5]: not cytotoxic
- metabolised at 18 h, 1000 µM (in vitro; 18 h, same conditions as for ARPP, read-out: deaminated by adenosine deaminase in 18 h): < 10%
- substrate activity for adenosine deaminase (adenosine deaminase): less active as a substrate for adenosine deaminase
- CAA (carbamyl aspartate), 5.0 μM ([6]; 5.0 μM): 1322 cpm/10^6 cells
- PurTP, 5.0 μM ([6]; 5.0 μM, zero = undetectable): 0 cpm/10^6 cells
- PyrTP, 5.0 μM ([6]; 5.0 μM, zero = undetectable): 0 cpm/10^6 cells
- activity at 5 µM ([6]; 5.0 μM, zero = undetectable, read-out: PurTP, % control, 5.0 μM): 0%
- activity at 5 µM ([6]; 5.0 μM, zero = undetectable, read-out: PydTP, % control, 5.0 μM): 0%
- Maximum watersoluble dosage [8]: 173 mg/kg/inj.
- solubility (physchem): 17.3 mg/mL (≈ 55.9 mM)
- lethal toxicity at maximum soluble dosage ([9]; i.p.): lethally toxic at that level for all treated mice
- maximum non-lethal concentration ([9]; i.p., qd day 1): 6.2 mg/mL
- death of treated mice at 10.4 mg/mL ([9]; made up at 10.4 mg/mL): 1/6

— patent US5041542A, “Substituted pyrimido[5,4-d]pyrimidine nucleosides” (Nucleic Acid Research Institute, priority 1988, dated 1991)
